This note sets out measurements from patent US20250340577A1, “BETA-LACTOMASE INHIBITORS AND USES THEREOF” (Case Western Reserve University, priority 2021, published 2025).

Molecules are shown by their SMILES.

Common to all, as to assay: MIC with cefepime, agar microdilution, CLSI
Common to all, as to format: cell-based

For assay [1], the system named is A. baumannii 0057. The following applies: compound fixed at 4 ug/ml; ADC-7. Summed up:
(§1)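 Agar microdilution per CLSI guidelines; MIC read for cefepime with the test compound held at a fixed 4 ug/ml.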

Assay [2] deals with E. coli 29838. The following applies: compound fixed at 4 ug/ml; CTX-M-14, TEM-1. A digest of the protocol: as §1
The subject of assay [3] is E. coli DH10B pBC-SK KPC-2. The following applies: compound fixed at 4 ug/ml. A digest of the protocol:
as §1

Assay [4] concerns E. coli DH10B pBC-SK PDC-3. The following applies: compound fixed at 4 ug/ml. A digest of the protocol:
as §1

In assay [5] the test system is E. coli DH10B pBC-SK SHV-2. The following applies: compound fixed at 4 ug/ml. A digest of the protocol: as §1
Assay [6] deals with E. coli DH10B pBC-SK control. Particulars: compound fixed at 4 ug/ml; B-lactamases none. Summed up:
as §1

Assay [7] deals with E. coli pLTCF1. Particulars: compound fixed at 4 ug/ml; CTX-M group 9. A digest of the protocol: as §1
The subject of assay [8] is K. pneumoniae 253. Particulars: compound fixed at 4 ug/ml; TEM-12, SHV-5, CTX-M. A digest of the protocol:
as §1

In assay [9] the test system is K. pneumoniae 266. Particulars: compound fixed at 4 ug/ml; SHV-5. Summed up: as §1
Assay [10] deals with K. pneumoniae 34700. The following applies: compound fixed at 4 ug/ml; CTX-M-15, SHV, TEM. Summed up:
as §1

For assay [11], the system named is K. pneumoniae 427. The following applies: compound fixed at 4 ug/ml; TEM-1, SHV-1, CTX-M-3. Summed up:
as §1

The subject of assay [12] is K. pneumoniae ST17. Particulars: compound fixed at 4 ug/ml; KPC-2, TEM, SHV, CTX-M-Group 1. A digest of the protocol: as §1
For assay [13], the system named is K. pneumoniae ST258 B5. Particulars: compound fixed at 4 ug/ml; KPC-2. Summed up: as §1
Assay [14] concerns K. pneumoniae ST258 C3. The following applies: compound fixed at 4 ug/ml; KPC-3. A digest of the protocol: as §1
For assay [15], the system named is K. pneumoniae original KPC-2. Particulars: compound fixed at 4 ug/ml. A digest of the protocol: as §1

`Nc1nnc(SCC(=O)NC(Cn2cc(C(=O)O)nn2)B(O)O)s1` (stereo not drawn) [MB076]: the MIC of cefepime in combination with compound was 64 µg/mL in assay [1]; less than 0.25 µg/mL in assay [2]; less than 0.25 µg/mL in assay [3]; less than 0.25 µg/mL in [4]; less than 0.25 µg/mL in assay [5]; less than 0.25 µg/mL in [6]. The MIC of cefepime in combination with compound was less than 0.25 µg/mL in assay [7]; 8 µg/mL in assay [8]; less than 0.25 µg/mL in assay [9]; 1 µg/mL in [10]; less than 0.25 µg/mL in assay [11]; 16 µg/mL in assay [12]. Moreover, the results for the MIC of cefepime in combination with compound in assay [13], in assay [14] and in assay [15] were 8 µg/mL, 1 µg/mL and less than 0.25 µg/mL, respectively.
